Laboratory results taken from ChEMBL document CHEMBL4270599, “Synthesis of a 3'-C-ethynyl-β-d-ribofuranose purine nucleoside library: Discovery of C7-deazapurine analogs as potent antiproliferative nucleosides” (Eur J Med Chem, 2018).

Legend:
Type in all cases: functional
[1] = system: HCT-116; assay: Cytotoxicity against human HCT116 cells after 48 hrs by SRB assay; conditions: HCT-116, 48 h; for GI50: read-out: GI50
[2] = system: KM12; assay: Cytotoxicity against human KM12 cells after 48 hrs by SRB assay; conditions: KM12, 48 h; for GI50: read-out: GI50
[3] = system: OVCAR-5; assay: Cytotoxicity against human OVCAR5 cells after 48 hrs by SRB assay; conditions: OVCAR-5, 48 h; for GI50: read-out: GI50
[4] = system: SN12C; assay: Cytotoxicity against human SN12C cells after 48 hrs by SRB assay; conditions: for GI50: read-out: GI50
[5] = system: Hs-578T; assay: Cytotoxicity against human Hs 578T cells after 48 hrs by SRB assay; conditions: for GI50: read-out: GI50; for TGI: read-out: TGI
[6] = system: HOP-62; assay: Growth inhibition of human HOP62 cells assessed as cell growth at 10^-8 M incubated for 48 hrs by sulforhodamine B assay relative to control; conditions: HOP-62, 48 h, read-out: Activity
[7] = system: NCI-H522; assay: Growth inhibition of human NCI-H522 cells assessed as cell growth at 10^-8 M incubated for 48 hrs by sulforhodamine B assay relative to control; conditions: NCI-H522, 48 h, read-out: Activity
[8] = system: HCC 2998; assay: Growth inhibition of human HCC2998 cells assessed as cell growth at 10^-8 M incubated for 48 hrs by sulforhodamine B assay relative to control; conditions: HCC 2998, 48 h, read-out: Activity
[9] = system: SF-268; assay: Growth inhibition of human SF268 cells assessed as cell growth at 10^-8 M incubated for 48 hrs by sulforhodamine B assay relative to control; conditions: SF-268, 48 h, read-out: Activity
[10] = system: SK-MEL-5; assay: Growth inhibition of human SK-MEL-5 cells assessed as cell growth at 10^-8 M incubated for 48 hrs by sulforhodamine B assay relative to control; conditions: SK-MEL-5, 48 h, read-out: Activity
[11] = system: NCI/ADR-RES; assay: Growth inhibition of human NCI/ADR-RES cells assessed as cell growth at 10^-8 M incubated for 48 hrs by sulforhodamine B assay relative to control; conditions: read-out: Activity
[12] = system: 786-0; assay: Growth inhibition of human 786-0 cells assessed as cell growth at 10^-8 M incubated for 48 hrs by sulforhodamine B assay relative to control; conditions: 786-0, 48 h, read-out: Activity
[13] = system: Hs-578T; assay: Growth inhibition of human Hs 578T cells assessed as cell growth at 10^-8 M incubated for 48 hrs by sulforhodamine B assay relative to control; conditions: read-out: Activity
[14] = system: MOLT-4; assay: Growth inhibition of human MOLT4 cells assessed as cell growth at 10^-7 M incubated for 48 hrs by sulforhodamine B assay relative to control; conditions: MOLT-4, 48 h, read-out: Activity
[15] = system: U-251; assay: Growth inhibition of human U251 cells assessed as cell growth at 10^-7 M incubated for 48 hrs by sulforhodamine B assay relative to control; conditions: U-251, 48 h, read-out: Activity
[16] = system: SK-MEL-5; assay: Growth inhibition of human SK-MEL-5 cells assessed as cell growth at 10^-7 M incubated for 48 hrs by sulforhodamine B assay relative to control; conditions: SK-MEL-5, 48 h, read-out: Activity
[17] = system: UACC-257; assay: Growth inhibition of human UACC257 cells assessed as cell growth at 10^-7 M incubated for 48 hrs by sulforhodamine B assay relative to control; conditions: UACC-257, 48 h, read-out: Activity
[18] = system: OVCAR-4; assay: Growth inhibition of human OVCAR4 cells assessed as cell growth at 10^-7 M incubated for 48 hrs by sulforhodamine B assay relative to control; conditions: OVCAR-4, 48 h, read-out: Activity
[19] = system: OVCAR-5; assay: Growth inhibition of human OVCAR5 cells assessed as cell growth at 10^-7 M incubated for 48 hrs by sulforhodamine B assay relative to control; conditions: OVCAR-5, 48 h, read-out: Activity
[20] = system: EKVX; assay: Growth inhibition of human EKVX cells assessed as cell growth at 10^-6 M incubated for 48 hrs by sulforhodamine B assay relative to control; conditions: read-out: Activity
[21] = system: NCI-H322M; assay: Growth inhibition of human NCI-H322M cells assessed as cell growth at 10^-6 M incubated for 48 hrs by sulforhodamine B assay relative to control; conditions: read-out: Activity
[22] = system: UACC-257; assay: Growth inhibition of human UACC257 cells assessed as cell growth at 10^-6 M incubated for 48 hrs by sulforhodamine B assay relative to control; conditions: UACC-257, 48 h, read-out: Activity
[23] = system: OVCAR-3; assay: Growth inhibition of human OVCAR3 cells assessed as cell growth at 10^-6 M incubated for 48 hrs by sulforhodamine B assay relative to control; conditions: OVCAR-3, 48 h, read-out: Activity
[24] = system: SN12C; assay: Growth inhibition of human SN12C cells assessed as cell growth at 10^-6 M incubated for 48 hrs by sulforhodamine B assay relative to control; conditions: read-out: Activity
[25] = system: TK-10; assay: Growth inhibition of human TK10 cells assessed as cell growth at 10^-6 M incubated for 48 hrs by sulforhodamine B assay relative to control; conditions: TK-10, 48 h, read-out: Activity
[26] = system: SR; assay: Growth inhibition of human SR cells assessed as cell growth at 10^-5 M incubated for 48 hrs by sulforhodamine B assay relative to control; conditions: read-out: Activity
[27] = system: SNB-19; assay: Growth inhibition of human SNB19 cells assessed as cell growth at 10^-5 M incubated for 48 hrs by sulforhodamine B assay relative to control; conditions: SNB-19, 48 h, read-out: Activity
[28] = system: UACC-257; assay: Growth inhibition of human UACC257 cells assessed as cell growth at 10^-5 M incubated for 48 hrs by sulforhodamine B assay relative to control; conditions: UACC-257, 48 h, read-out: Activity
[29] = system: Hs-578T; assay: Growth inhibition of human Hs 578T cells assessed as cell growth at 10^-5 M incubated for 48 hrs by sulforhodamine B assay relative to control; conditions: read-out: Activity
[30] = system: UACC-62; assay: Growth inhibition of human UACC62 cells assessed as cell growth at 10^-5 M incubated for 48 hrs by sulforhodamine B assay relative to control; conditions: UACC-62, 48 h, read-out: Activity
[31] = system: A549; assay: Growth inhibition of human A549/ATCC cells assessed as cell growth at 10^-6 M incubated for 48 hrs by sulforhodamine B assay relative to control; conditions: A549, 48 h, read-out: Activity
[32] = system: UO-31; assay: Growth inhibition of human UO31 cells assessed as cell growth at 10^-6 M incubated for 48 hrs by sulforhodamine B assay relative to control; conditions: UO-31, 48 h, read-out: Activity
[33] = system: BT-549; assay: Growth inhibition of human BT549 cells assessed as cell growth at 10^-6 M incubated for 48 hrs by sulforhodamine B assay relative to control; conditions: BT-549, 48 h, read-out: Activity
[34] = system: OVCAR-5; assay: Growth inhibition of human OVCAR5 cells assessed as cell growth at 10^-4 M incubated for 48 hrs by sulforhodamine B assay relative to control; conditions: OVCAR-5, 48 h, read-out: Activity
[35] = read-out: LC50 (the source's name)
[36] = read-out: pLC50 (the source's name) (converted)

SMILES: C#C[C@@]1(O)[C@@H](CO)O[C@@H](n2cc(Br)c3c(N)ncnc32)[C@@H]1O
- GI50 [1]: 0.0258 to 0.0292 µM
- CC50 [1, 35]: > 100 µM
- TGI ([1]; read-out: TGI): > 100 µM
- TGI ([1]; read-out: pTGI (converted)): > 100 µM
- GI50 [2]: 0.0946 to 0.121 µM
- TGI ([2]; read-out: TGI): > 100 µM
- CC50 [2, 36]: > 100 µM
- TGI ([2]; read-out: pTGI (converted)): > 100 µM
- GI50 [3]: 0.257 to 1.37 µM
- TGI ([3]; read-out: TGI): 56.7 to 100 µM
- CC50 [3, 36]: > 100 µM
- GI50 [4]: 0.0377 to 0.218 µM
- CC50 [4, 35]: > 100 µM
- TGI ([4]; read-out: TGI): > 100 µM
- TGI ([4]; read-out: pTGI (converted)): > 100 µM
- GI50 [5]: 0.307 to 1.35 µM
- TGI [5]: 52.4 to 100 µM
- CC50 [5, 36]: > 100 µM
- growth at 0.01 µM [6]: 92 to 100%
- growth at 0.01 µM [7]: 89 to 95%
- growth at 0.01 µM [8]: 86 to 99%
- growth at 0.01 µM [9]: 83 to 93%
- growth at 0.01 µM [10]: 93 to 96%
- growth at 0.01 µM [11]: 80 to 90%
- growth at 0.01 µM [12]: 86 to 91%
- growth at 0.01 µM [13]: 90 to 96%
- growth at 0.1 µM [14]: 44 to 66%
- growth at 0.1 µM [15]: 2 to 11%
- growth at 0.1 µM [16]: 30 to 71%
- growth at 0.1 µM [17]: 70 to 93%
- growth at 0.1 µM [18]: 78 to 89%
- growth at 0.1 µM [19]: 62 to 97%
- growth at 1 µM [20]: 4 to 17%
- growth at 1 µM [21]: 26 to 33%
- growth at 1 µM [22]: 60 to 73%
- growth at 1 µM [23]: 15 to 17%
- growth at 1 µM [24]: 7 to 13%
- growth at 1 µM [25]: 17 to 27%
- growth at 10 µM [26]: 1 to 5%
- growth at 10 µM [27]: 1%
- growth at 10 µM [28]: 37 to 43%
- growth at 10 µM [29]: 3 to 9%
- growth at 10 µM [30]: 4 to 8%

SMILES: C#C[C@@]1(O)[C@@H](CO)O[C@@H](n2cc(I)c3c(N)ncnc32)[C@@H]1O
- GI50 [1]: 0.0344 to 0.0547 µM
- TGI ([1]; read-out: TGI): > 100 µM
- CC50 [1, 36]: > 100 µM
- TGI ([1]; read-out: pTGI (converted)): > 100 µM
- GI50 [2]: 0.0928 to 0.0998 µM
- CC50 [2, 35]: > 100 µM
- TGI ([2]; read-out: TGI): > 100 µM
- TGI ([2]; read-out: pTGI (converted)): > 100 µM
- GI50 [3]: 0.515 to 1.69 µM
- CC50 [3, 35]: > 100 µM
- TGI ([3]; read-out: TGI): > 100 µM
- TGI ([3]; read-out: pTGI (converted)): > 100 µM
- GI50 [4]: 0.069 to 0.138 µM
- TGI ([4]; read-out: TGI): > 100 µM
- CC50 [4, 36]: > 100 µM
- TGI ([4]; read-out: pTGI (converted)): > 100 µM
- GI50 [5]: 0.55 to 1.12 µM
- CC50 [5, 35]: > 100 µM
- TGI [5]: 7.12 to 8.62 µM
- growth at 0.01 µM [6]: 83 to 89%
- growth at 0.01 µM [7]: 83 to 85%
- growth at 0.01 µM [8]: 87 to 90%
- growth at 0.01 µM [9]: 92%
- growth at 0.01 µM [10]: 87 to 94%
- growth at 0.01 µM [11]: 86 to 88%
- growth at 0.01 µM [12]: 87 to 98%
- growth at 0.01 µM [13]: 78 to 87%
- growth at 0.1 µM [14]: 39 to 52%
- growth at 0.1 µM [15]: 40 to 45%
- growth at 0.1 µM [16]: 62 to 65%
- growth at 0.1 µM [17]: 81 to 88%
- growth at 0.1 µM [18]: 87 to 91%
- growth at 0.1 µM [19]: 67 to 75%
- growth at 1 µM [31]: 29 to 41%
- growth at 1 µM [20]: 33 to 38%
- growth at 1 µM [21]: 37 to 44%
- growth at 1 µM [22]: 72 to 79%
- growth at 1 µM [23]: 24 to 33%
- growth at 1 µM [24]: 16 to 25%
- growth at 1 µM [25]: 34 to 39%
- growth at 1 µM [32]: 20 to 28%
- growth at 1 µM [33]: 17 to 32%
- growth at 10 µM [27]: 2 to 3%
- growth at 10 µM [28]: 6 to 7%
- growth at 100 µM [34]: 2 to 5%
